Test results: patent publication US20260008746A1, “CATIONIC LIPID COMPOUND WITH HIGH EFFICIENCY, LOW TOXICITY AND STABLE EXPRESSION, AND COMPOSITION COMPRISNG SAME” (HANGZHOU TIANLONG PHARMACEUTICAL CO., LTD, priority 2023, published 2026)

Experiments:
293T cells [1] = test: Fluorescent detection of Fluc-mRNA (cell transfection efficiency of LNP formulations); assay type: cell-based; settings: for Relative light unit (RLU): LNP formulation containing 0.3 μg Fluc-mRNA, 96-well plate, 24 hours; for Multiples (YK-107): RLU of YK-107 / RLU of named substance; for Ratio relative to SM-102: RLU of named substance / RLU of SM-102
How it was run: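 293T cells seeded at 10,000 per well, cultured overnight, then given LNP carrying 0.3 μg Fluc-mRNA (cationic:neutral:structured:PEG-lipid 49:10:39.5:1.5 molar). Incubated 24 h. Luciferase signal read with kit reagent on an IVIS imaging system.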

293T cells [2] = test: Cell survival rate determination (CCK-8); assay type: cell-based; settings: for Cell survival rate (%): LNP formulation containing 1.5 μg Fluc-mRNA, 24 hours, CCK-8, absorbance at 450 nm; for cell survival rate lower than that of YK-101: cell survival rate of YK-101 minus that of named substance; for cell survival rate lower than that of YK-107: cell survival rate of YK-107 minus that of named substance; for cell survival rate lower than that of YK-108: cell survival rate of YK-108 minus that of named substance
How it was run: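 293T cells were seeded overnight at 10,000 cells/well in 96-well plates, then exposed for 24 h to LNP containing 1.5 μg Fluc-mRNA (cationic:neutral:structural:polymer-conjugated lipid, 49:10:39.5:1.5 molar) or to Lipofectamine 3000. Viability was read by CCK-8, 1 h incubation, absorbance 450 nm.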

BALB/C mice = test: In vivo imaging of Fluc-mRNA expression in mice delivered by LNP formulations
How it was run: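 Female BALB/C mice (4-6 weeks, 17-19 g) received LNP carrying […] Fluc-mRNA intramuscularly. Substrate was given intraperitoneally at 6 h, 24 h, 48 h and 7 d, and average radiance was imaged by IVIS 5 min later.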

[3] = Determination of particle size and polydispersity index (PDI) of lipid nanoparticles by dynamic light scattering; assay type: physicochemical; settings: LNP formulation of named cationic lipid/DSPC/cholesterol/DMG-PEG2000 49:10:39.5:1.5; for Particle size (nm): 90° scattering angle, 25° C
How it was run: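 LNPs of cationic lipid/DSPC/cholesterol/DMG-PEG2000 (49:10:39.5:1.5 mol%), lipid:mRNA 15:1 w/w, carrying eGFP or Fluc mRNA, made by ethanol injection into citrate buffer pH 4–5, sonicated, PBS-exchanged by ultrafiltration. Size and PDI by dynamic light scattering after dilution in RNase-free water, 90° angle, 25 °C, triplicate.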

[4] = LNP containing 10 pg Fluc-mRNA, intramuscular, female BALB/C mice, 6 h
[5] = LNP containing 10 pg Fluc-mRNA, intramuscular, female BALB/C mice, 24 h
[6] = LNP containing 10 pg Fluc-mRNA, intramuscular, female BALB/C mice, 7 d

| Compound | Relative light unit (RLU) (293T cells [1]) | Multiples (YK-107) (293T cells [1]) | Ratio relative to SM-102 (293T cells [1]) | Cell survival rate (%) (293T cells [2]) | cell survival rate lower than that of YK-101 (293T cells [2]) [%] | cell survival rate lower than that of YK-107 (293T cells [2]) [%] | cell survival rate lower than that of YK-108 (293T cells [2]) [%] | average radiation intensity of YK-101, times that of named substance (BALB/C mice; 6 h) [times] | average radiation intensity of YK-107, times that of named substance (BALB/C mice; 6 h) [times] | average radiation intensity of YK-108, times that of named substance (BALB/C mice; 6 h) [times] | average radiation intensity of YK-101, times that of named substance (BALB/C mice; 24 h) [times] | average radiation intensity of YK-107, times that of named substance (BALB/C mice; 24 h) [times] | average radiation intensity of YK-108, times that of named substance (BALB/C mice; 24 h) [times] | average radiation intensity of YK-101, times that of named substance (BALB/C mice; 48 h) [times] | average radiation intensity of YK-107, times that of named substance (BALB/C mice; 48 h) [times] | average radiation intensity of YK-108, times that of named substance (BALB/C mice; 48 h) [times] | average radiation intensity of YK-101, times that of named substance (BALB/C mice; 7 d) [times] | average radiation intensity of YK-107, times that of named substance (BALB/C mice; 7 d) [times] | average radiation intensity of YK-108, times that of named substance (BALB/C mice; 7 d) [times] | average radiation intensity, 6 h (BALB/C mice; [4]) | further results |
| --- | --- | --- | --- | --- | --- | --- | --- | --- | --- | --- | --- | --- | --- | --- | --- | --- | --- | --- | --- | --- | --- |
| CCCCCCCCCCCCC(O)CN(C)CCCCCC(=O)OCC(CCCCCC)CCCCCCCC (stereo not drawn) [HHMA, reference compound] | 2047757 | 10.92 | 1.33 | 67.77 | 22.35 | 22.68 | 22.09 | 2.3 | 2.5 | 3.2 | 9.1 | 11.3 | 12.2 | 6.0 | 7.3 | 7.5 | 2.3 | 2.5 | 2.7 | 639280 | Multiples (YK-101) (293T cells [1]; RLU of YK-101 / RLU of named substance): 9.93; Multiples (YK-108) (293T cells [1]; RLU of YK-108 / RLU of named substance): 12.04; average radiation intensity, 24 h (BALB/C mice; [5]): 115530; average radiation intensity, 7 d (BALB/C mice; [6]): 5235; PDI(%) [3]: 12.2%; Particle size (nm) [3]: 138 nm |
| CCCCCCCCCCOC(=O)CCCN(CCCCCC(=O)OCCC(CCCCCC)CCCCCC)CCOCCO [YK-123, 3-hexylnonyl 6-(4-(decyloxy)-4-oxobutyl)(2-(2-hydroxyethoxy-ethyl)amino)hexanoate] | 807703 | 27.68 | 0.53 | 76.68 | 13.44 | 13.77 | 13.18 | 4.7 | 5.0 | 6.4 | 18.0 | 22.2 | 23.9 | 19.9 | 24.2 | 24.7 | 8.6 | 9.4 | 10.0 | 317640 | cell transfection efficiency, times that of YK-124 (293T cells [1]): 10 times; fluorescence absorption value, times that of HHMA (293T cells [1]; RLU of named substance / RLU of HHMA): 0.39 times; fluorescence absorption value, times that of Lipofectamine 3000 (293T cells [1]; RLU of named substance / RLU of Lipofectamine 3000): 0.75 times; Fluc-mRNA expression signal intensity, times that of compound 21 (293T cells [1]; RLU of named substance / RLU of compound 21): 0.58 times; fluorescence absorption value, times that of compound 23 (293T cells [1]; RLU of named substance / RLU of compound 23): 0.63 times; difference from SM-102 in Fluc-mRNA fluorescence (GraphPad Prism analysis) (293T cells [1]; statistical comparison with SM-102): no significant difference; average radiation intensity, 24 h (BALB/C mice; [5]): 58728; average radiation intensity, 48 h (BALB/C mice; LNP containing 10 pg Fluc-mRNA, intramuscular, female BALB/C mice, 48 h): 9336; average radiation intensity, 7 d (BALB/C mice; [6]): 1414; PDI(%) [3]: 15.4%; Particle size (nm) [3]: 246 nm |
